Experimental findings from patent US20070049593A1 (priority 2004, published 2007) are described below.

Where a name gives a salt, the structure may show the parent alone. Bounds are passed on as bounds.

The target of the experiment is T1, HCV polymerase (Hepatitis C virus genotype 1b, UniProt P26663).
T1 construct: a region encoding NS5B (J Virol 1991 March, 65(3), 1105-13, 544 amino acids after deletion of 47 amino acids on the C-terminal); 6xHis (C); made in house; host or cells: Escherichia coli
T1 sequence (P26663 2420-2963): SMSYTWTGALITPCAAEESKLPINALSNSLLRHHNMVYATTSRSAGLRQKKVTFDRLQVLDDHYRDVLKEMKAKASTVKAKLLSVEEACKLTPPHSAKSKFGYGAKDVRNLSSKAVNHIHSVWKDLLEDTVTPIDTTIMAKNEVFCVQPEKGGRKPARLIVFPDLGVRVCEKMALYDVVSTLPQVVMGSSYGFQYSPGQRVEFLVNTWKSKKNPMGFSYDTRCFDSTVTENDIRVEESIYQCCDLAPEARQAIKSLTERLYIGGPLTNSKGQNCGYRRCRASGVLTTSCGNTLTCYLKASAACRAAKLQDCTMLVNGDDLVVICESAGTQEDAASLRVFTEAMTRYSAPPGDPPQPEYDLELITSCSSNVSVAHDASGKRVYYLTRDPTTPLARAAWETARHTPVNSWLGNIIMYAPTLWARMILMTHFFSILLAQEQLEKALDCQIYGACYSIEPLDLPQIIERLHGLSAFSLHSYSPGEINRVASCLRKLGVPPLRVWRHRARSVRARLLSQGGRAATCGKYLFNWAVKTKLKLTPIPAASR
The experiment can be described thus: biochemical. Also on record: species or system HCV BK strain. In a few lines: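 Recombinant HCV BK-strain NS5B (C-terminal 47 aa deleted, His6-tagged, E. coli), 0.5 μg/ml, run with 5 μg/ml in vitro-transcribed RNA template (polyU/3′X), ATP/GTP/CTP 50 μM, UTP 2 μM plus [3H]UTP, pH 7.5, 25° C, 90 min. TCA-precipitated RNA counted by scintillation; IC50 from activity with vs without compound.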

For the compound `CN(C)c1cccc2c1OCCn1c-2c(C2CCCCC2)c2ccc(C(=O)O)cc21` [Example 2-483, 12-cyclohexyl-4-dimethylamino-6,7-dihydro-5-oxa-7a-azadibenzo[a,e]azulene-9-carboxylic acid], the IC50 (commonly the midpoint of a concentration-inhibition curve) was less than 100 nM.
For `CCC1CCCN(CCN2CCn3c(c(C4CCCCC4)c4ccc(C(=O)O)cc43)-c3ccc(C)cc32)C1` (centres unmarked) [Example 1-272, 13-cyclohexyl-5-[2-(3-ethylpiperidin-1-yl)ethyl]-3-methyl-6,7-dihydro-5H-benzo[5,6][1,4]diazepino[7,1-a]indole-10-carboxylic acid dihydrochloride] the value was less than 100 nM; for `COCC[C@@H]1CCCN(CCN2CCn3c(c(C4CCCCC4)c4ccc(C(=O)O)cc43)-c3ccc(C)cc32)C1` [Example 1-413, 13-cyclohexyl-5-{2-[(S)-3-(2-methoxyethyl)piperidin-1-yl]ethyl}-3-methyl-6,7-dihydro-5H-benzo[5,6][1,4]diazepino[7,1-a]indole-10-carboxylic acid dihydrochloride], less than 100 nM.
Compound `CN(C)C(=O)CNc1cccc2c1OCCn1c-2c(C2CCCCC2)c2ccc(C(=O)O)cc21` [Example 2-176, 12-cyclohexyl-4-(dimethylcarbamoylmethylamino)-6,7-dihydro-5-oxa-7a-azadibenzo[a,e]azulene-9-carboxylic acid] gave an IC50 of less than 100 nM.
On to `Cc1ccc2c(c1)N(CCN1CCCC(OC(C)C)C1)CCn1c-2c(C2CCCCC2)c2ccc(C(=O)O)cc21` (centres unmarked) [Example 1-394, 13-cyclohexyl-5-[2-(3-isopropoxypiperidin-1-yl)ethyl]-3-methyl-6,7-dihydro-5H-benzo[5,6][1,4]diazepino[7,1-a]indole-10-carboxylic acid monohydrochloride], for which the IC50 was less than 100 nM.
The figure for `O=C(O)c1ccc2c(C3CCCCC3)c3n(c2c1)CCOc1c(-c2ccccc2NCCN2CCCCC2)cccc1-3` [Example 2-554, 12-cyclohexyl-4-{2-[2-(piperidin-1-yl)ethylamino]phenyl}-6,7-dihydro-5-oxa-7a-azadibenzo[a,e]azulene-9-carboxylic acid dihydrochloride] is less than 100 nM; for `CN1CCn2c(c(C3CCCCC3)c3ccc(C(=O)O)cc32)-c2ccccc2C1` [Example 11-1, 14-cyclohexyl-6-methyl-5,6,7,8-tetrahydrobenzo[6,7][1,4]diazocino[8,1-a]indole-11-carboxylic acid monohydrochloride] it is less than 100 nM.
For `NC(=O)c1ccc2c(c1)N(CCN1CCCCC1)CCn1c-2c(C2CCCCC2)c2ccc(C(=O)O)cc21` [Example 1-491, 3-carbamoyl-13-cyclohexyl-5-[2-(piperidin-1-yl)ethyl]-6,7-dihydro-5H-benzo[5,6][1,4]diazepino[7,1-a]indole-10-carboxylic acid monohydrochloride] the value was less than 100 nM.
For `O=C(O)c1ccc2c(C3CCCCC3)c3n(c2c1)CCN(CCCN1CCCCCC1)c1ccccc1-3` [Example 1-194, 5-[3-(azepan-1-yl)propyl]-13-cyclohexyl-6,7-dihydro-5H-benzo[5,6][1,4]diazepino[7,1-a]indole-10-carboxylic acid dihydrochloride] the value was less than 100 nM; for `CN(C)CCN1CCn2c(c(C3CCCCC3)c3ccc(C(=O)O)cc32)-c2ccc(OCc3cccc(C(=O)O)c3)cc21` [Example 1-586, 3-(3-carboxybenzyloxy)-13-cyclohexyl-5-(2-dimethylaminoethyl)-6,7-dihydro-5H-benzo[5,6][1,4]diazepino[7,1-a]indole-10-carboxylic acid dihydrochloride], less than 100 nM.
For `Cc1ccc2c(c1)N(CCN1CCC(CO)CC1)CCn1c-2c(C2CCCCC2)c2ccc(C(=O)O)cc21` [Example 1-443, 13-cyclohexyl-5-[2-(4-hydroxymethylpiperidin-1-yl)ethyl]-3-methyl-6,7-dihydro-5H-benzo[5,6][1,4]diazepino[7,1-a]indole-10-carboxylic acid dihydrochloride], the IC50 was less than 100 nM.
The compound `CN(C)CCCN1CCn2c(c(C3CCCCC3)c3ccc(C(=O)O)cc32)-c2ccccc21` [Example 1-148, 13-cyclohexyl-5-(3-dimethylaminopropyl)-6,7-dihydro-5H-benzo[5,6][1,4]diazepino[7,1-a]indole-10-carboxylic acid dihydrochloride] gave an IC50 of less than 100 nM.
The compound `CN(C)Cc1ccccc1-c1cccc2c1OCCn1c-2c(C2CCCCC2)c2ccc(C(=O)O)cc21` [Example 2-343, 12-cyclohexyl-4-(2-dimethylaminomethylphenyl)-6,7-dihydro-5-oxa-7a-azadibenzo[a,e]azulene-9-carboxylic acid] came in with an IC50 of less than 100 nM.
The figure for `COC(=O)C(Cc1ccc(O)c(F)c1)NC(=O)c1ccc2c(C3CCCCC3)c3n(c2c1)CCOc1cc(OC)ccc1-3` (centres unmarked) [Example 2-315, methyl 2-[(12-cyclohexyl-3-methoxy-6,7-dihydro-5-oxa-7a-azadibenzo[a,e]azulene-9-carbonyl)amino]-3-(3-fluoro-4-hydroxyphenyl)propionate] is less than 100 nM; for `COC(=O)Cn1c(C(C)(C)NC(=O)c2ccc3c(C4CCCCC4)c4n(c3c2)CCOc2ccccc2-4)nc2ccccc21` [Example 2-284, methyl (2-{1-[(12-cyclohexyl-6,7-dihydro-5-oxa-7a-azadibenzo[a,e]azulene-9-carbonyl)amino]-1-methylethyl}benzimidazol-1-yl)acetate] it is less than 100 nM; for `CC(C)(C)OC(=O)N1CCC(Oc2ccc3c(c2)OCCn2c-3c(C3CCCCC3)c3ccc(C(=O)O)cc32)CC1` [Example 2-10, 3-(1-tert-butoxycarbonylpiperidin-4-yloxy)-12-cyclohexyl-6,7-dihydro-5-oxa-7a-azadibenzo[a,e]azulene-9-carboxylic acid] it is less than 100 nM.
`O=C(O)c1ccc2c(C3CCCCC3)c3n(c2c1)CCN(CCN1CCCCC1)c1ccccc1-3` [Example 1-32, 13-cyclohexyl-5-[2-(piperidin-1-yl)ethyl]-6,7-dihydro-5H-benzo[5,6][1,4]diazepino[7,1-a]indole-10-carboxylic acid dihydrochloride]: the IC50 was less than 100 nM.
As for `CCCc1ccc2c(c1)N(CCN1CCCC(C)C1)CCn1c-2c(C2CCCCC2)c2ccc(C(=O)O)cc21` (centres unmarked) [Example 1-356, 13-cyclohexyl-5-[2-(3-methylpiperidin-1-yl)ethyl]-3-propyl-6,7-dihydro-5H-benzo[5,6][1,4]diazepino[7,1-a]indole-10-carboxylic acid dihydrochloride], the 50% inhibitory concentration (IC50) is less than 100 nM.
The figure for `Cc1cc(COc2ccc3c(c2)N(CC[N+](C)(C)Cc2cc(C)on2)CCn2c-3c(C3CCCCC3)c3ccc(C(=O)O)cc32)no1` [Example 1-344, N-{2-[10-carboxy-13-cyclohexyl-3-(5-methylisoxazol-3-ylmethoxy)-6,7-dihydro-benzo[5,6][1,4]diazepino[7,1-a]indol-5-yl]ethyl}-N,N-dimethyl-N-(5-methylisoxazol-3-ylmethyl)ammonium chloride monohydrochloride] is less than 100 nM.
For `CCN(CCO)CCCN1CCn2c(c(C3CCCCC3)c3ccc(C(=O)O)cc32)-c2ccc(Cl)cc21` [Example 1-442, 3-chloro-13-cyclohexyl-5-{3-[N-ethyl-N-(2-hydroxyethyl)amino]propyl}-6,7-dihydro-5H-benzo[5,6][1,4]diazepino[7,1-a]indole-10-carboxylic acid dihydrochloride] the value was less than 100 nM.
In turn, `COCC1CCCN(CCN2CCn3c(c(C4CCCC4)c4ccc(C(=O)O)cc43)-c3ccc(Cl)cc32)C1` (centres unmarked) [Example 1-390, 3-chloro-13-cyclopentyl-5-[2-(3-methoxymethylpiperidin-1-yl)ethyl]-6,7-dihydro-5H-benzo[5,6][1,4]diazepino[7,1-a]indole-10-carboxylic acid] came in with an IC50 of less than 100 nM.
For `COC(=O)N1CC[C@H](Oc2ccc3c(c2)OCCn2c-3c(C3CCCCC3)c3ccc(C(=O)O)cc32)C1` [Example 2-50, 12-cyclohexyl-3-((S)-1-methoxycarbonylpyrrolidin-3-yloxy)-6,7-dihydro-5-oxa-7a-azadibenzo[a,e]azulene-9-carboxylic acid] the value was less than 100 nM.
The figure for `Cc1ccc2c(c1)N(CCN1CCC[C@@H](CC(=O)O)C1)CCn1c-2c(C2CCCCC2)c2ccc(C(=O)O)cc21` [Example 1-556, 5-[2-((S)-3-carboxymethylpiperidin-1-yl)ethyl]-13-cyclohexyl-3-methyl-6,7-dihydro-5H-benzo[5,6][1,4]diazepino[7,1-a]indole-10-carboxylic acid dihydrochloride] is less than 100 nM; for `CNC(=O)COc1ccc(C[C@H](NC(=O)c2ccc3c(C4CCCCC4)c4n(c3c2)CCOc2cc(OC)ccc2-4)C(=O)OC)cc1` [Example 2-382, methyl (S)-2-[(12-cyclohexyl-3-methoxy-6,7-dihydro-5-oxa-7a-azadibenzo[a,e]azulene-9-carbonyl)amino]-3-[4-(methylcarbamoylmethoxy)phenyl]propionate] it is less than 100 nM.
For `COC(=O)[C@@H]1Cc2ccc(O)cc2CN1C(=O)c1ccc2c(C3CCCCC3)c3n(c2c1)CCOc1cc(OC)ccc1-3` [Example 2-281, methyl (S)-2-(12-cyclohexyl-3-methoxy-6,7-dihydro-5-oxa-7a-azadibenzo[a,e]azulene-9-carbonyl)-7-hydroxy-1,2,3,4-tetrahydroisoquinoline-3-carboxylate] the value was 100 to 1000 nM; for `COC1CCN(CCN2CCn3c(c(C4CCCCC4)c4ccc(C(=O)O)cc43)-c3ccccc32)CC1` [Example 1-39, 13-cyclohexyl-5-[2-(4-methoxypiperidin-1-yl)ethyl]-6,7-dihydro-5H-benzo[5,6][1,4]diazepino[7,1-a]indole-10-carboxylic acid dihydrochloride], less than 100 nM.
